Here are results for one molecule from ChEMBL document CHEMBL1150601, “Lyngbouilloside, a novel glycosidic macrolide from the marine cyanobacterium Lyngbya bouillonii” (J Nat Prod, 2002).

Molecules are shown by their SMILES.

The assay can be described thus: Cytotoxicity against mouse Neuro2a cells. Type of assay: functional, cell-based. To be noted: N2a.

Turning to `CC/C=C/C=C/CC[C@]1(C)C[C@H](O)[C@H](C)CC[C@H]2C[C@@H](O[C@@H]3O[C@@H](C)[C@H](OC)[C@@H](O)[C@H]3OC)C[C@@](O)(CC(=O)O1)O2` [LYNGBOUILLOSIDE], half-maximal inhibition (IC50) was put at 17 µM.
